Reference: US8609672B2, “Piperazinylpyrimidine analogues as protein kinase inhibitors” (University of the Pacific, priority 2010, dated 2013)

Target: KIT (Homo sapiens, UniProt P10721)
Conditions: KIT wild-type; reference kinase inhibitors, from literature; cited from earlier work

KIT, sequence (P10721 26-976): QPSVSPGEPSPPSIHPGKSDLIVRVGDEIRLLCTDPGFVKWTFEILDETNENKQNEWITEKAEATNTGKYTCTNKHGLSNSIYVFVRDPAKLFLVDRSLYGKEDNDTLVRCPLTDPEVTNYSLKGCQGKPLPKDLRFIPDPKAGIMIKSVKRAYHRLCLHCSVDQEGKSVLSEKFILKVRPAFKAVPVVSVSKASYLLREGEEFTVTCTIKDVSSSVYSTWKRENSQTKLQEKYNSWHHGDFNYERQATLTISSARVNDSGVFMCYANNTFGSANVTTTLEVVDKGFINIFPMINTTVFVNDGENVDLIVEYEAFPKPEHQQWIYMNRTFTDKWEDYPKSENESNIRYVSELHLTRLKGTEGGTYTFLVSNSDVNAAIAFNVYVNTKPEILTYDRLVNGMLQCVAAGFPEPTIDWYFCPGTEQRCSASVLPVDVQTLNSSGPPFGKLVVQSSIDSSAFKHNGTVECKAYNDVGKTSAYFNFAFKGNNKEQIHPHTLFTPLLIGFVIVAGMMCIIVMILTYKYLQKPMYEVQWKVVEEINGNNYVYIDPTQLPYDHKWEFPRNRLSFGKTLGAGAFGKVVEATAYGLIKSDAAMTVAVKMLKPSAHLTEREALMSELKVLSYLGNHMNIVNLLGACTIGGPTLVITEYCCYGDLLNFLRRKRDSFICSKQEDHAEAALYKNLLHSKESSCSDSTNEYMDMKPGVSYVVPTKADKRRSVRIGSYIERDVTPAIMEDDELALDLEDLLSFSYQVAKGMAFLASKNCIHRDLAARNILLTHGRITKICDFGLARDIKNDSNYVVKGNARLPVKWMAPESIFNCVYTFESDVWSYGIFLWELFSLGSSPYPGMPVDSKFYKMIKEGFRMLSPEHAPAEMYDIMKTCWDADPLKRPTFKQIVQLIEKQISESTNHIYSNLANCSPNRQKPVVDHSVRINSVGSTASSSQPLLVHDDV

Compound | Kd
COCC(=O)NC/C=C/c1ccc2ncnc(Nc3ccc(Oc4ccc(C)nc4)c(C)c3)c2c1 [CP-724714] | > 10000 nM
CCOc1cc2ncc(C#N)c(Nc3ccc(F)c(Cl)c3)c2cc1NC(=O)/C=C/CN(C)C [EKB-569] | > 10000 nM
Oc1ccc(-c2nc(-c3ccc(F)cc3)c(-c3ccncc3)[nH]2)cc1 [SB-202190] | > 10000 nM

Same assay, conditions: cited from earlier work

Compound | Kd
NC(=O)c1ccc(-c2nc(-c3ccccn3)c(-c3ccc4c(c3)OCO4)[nH]2)cc1 [SB-431542] | > 10000 nM

Tested on: not given
Conditions: not given

melting point | Compound
> 250 °C | CCc1cnc(N2CCN(c3ncnc4ccccc34)CC2)nc1 [Compound 3, 4-(4-(5-ethylpyrimidin-2-yl)piperazin-1-yl)quinazoline]
137 to 138 °C | CCc1cnc(N2CCN(c3nc(-c4ccccc4)nc4ccccc34)CC2)nc1 [Compound 5, 4-(4-(5-ethylpyrimidin-2-yl)piperazin-1-yl)-2-phenylquinazoline]
135 to 137 °C | c1ccc(Cc2cnc(N3CCN(c4nc(-c5ccccc5)nc5ccccc45)CC3)nc2)cc1 [Compound 6, 4-(4-(5-benzylpyrimidin-2-yl)piperazin-1-yl)-2-phenylquinazoline]
146 to 147 °C | CCc1cnc(N2CCN(C(=O)c3cccc(Nc4ncnc5ccccc45)c3)CC2)nc1 [Compound 13, (4-(5-ethylpyrimidin-2-yl)piperazin-1-yl)(3-(quinazolin-4-ylamino)phenyl)methanone]
248 to 249 °C | CCc1cnc(N2CCN(C(=O)c3ccc(Nc4ncnc5ccccc45)cc3)CC2)nc1 [Compound 14, (4-(5-ethylpyrimidin-2-yl)piperazin-1-yl)(4-(quinazolin-4-ylamino)phenyl)methanone]
245 to 247 °C | O=C(c1ccc(Nc2ncnc3ccccc23)cc1)N1CCN(c2ncc(Cc3ccccc3)cn2)CC1 [Compound 17, (4-(5-benzylpyrimidin-2-yl)piperazin-1-yl)(4-(quinazolin-4-ylamino)phenyl)methanone]
99 to 101 °C | O=C(c1ccc(CNc2ncnc3ccccc23)cc1)N1CCN(c2ncc(Cc3ccccc3)cn2)CC1 [Compound 18, (4-(5-benzylpyrimidin-2-yl)piperazin-1-yl)(4-((quinazolin-4-ylamino)methyl)phenyl)methanone]
204 to 205 °C | CCc1cnc(N2CCN(C(=O)c3ccccc3NC3=c4ccccc4=NCN3c3ccccc3)CC2)nc1 [Compound 19, (4-(5-ethylpyrimidin-2-yl)piperazin-1-yl)(2-(3-phenylquinazolin-4-ylamino)phenyl)methanone]
> 250 °C | CCc1cnc(N2CCN(C(=O)c3ccccc3NC3(c4ccccc4)NC=Nc4ccccc43)CC2)nc1 (centres unmarked) [Compound 20, (4-(5-ethylpyrimidin-2-yl)piperazin-1-yl)(2-(4-phenylquinazolin-4-ylamino)phenyl)methanone]
207 to 208 °C | CCc1cnc(N2CCN(C(=O)c3ccc(CNc4nc(-c5ccccc5)nc5ccccc45)cc3)CC2)nc1 [Compound 21, (4-(5-ethylpyrimidin-2-yl)piperazin-1-yl)(4-((2-phenylquinazolin-4ylamino)methyl)phenyl)methanone]
214 to 215 °C | O=C(c1cccc(Nc2nc(-c3ccccc3)nc3ccccc23)c1)N1CCN(c2ncc(Cc3ccccc3)cn2)CC1 [Compound 22, (4-(5-benzylpyrimidin-2-yl)piperazin-1-yl)(3-(2-phenylquinazolin-4ylamino)phenyl)methanone]
> 250 °C | O=C(c1ccc(Nc2nc(-c3ccccc3)nc3ccccc23)cc1)N1CCN(c2ncc(Cc3ccccc3)cn2)CC1 [Compound 23, (4-(5-benzylpyrimidin-2-yl)piperazin-1-yl)(4-(2-phenylquinazolin-4ylamino)phenyl)methanone]
216 to 217 °C | O=C(c1ccc(CNc2nc(-c3ccccc3)nc3ccccc23)cc1)N1CCN(c2ncc(Cc3ccccc3)cn2)CC1 [Compound 24, (4-(5-benzylpyrimidin-2-yl)piperazin-1-yl)(4-((2-phenylquinazolin-4-ylamino)methyl)phenyl)methanone]
